In PubChem BioAssay (NCI) one finds GI50 and TGI data, which are given here for 5 molecules.

Molecules are shown by their SMILES.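 Compound exposure: 48 hours, 5 concentrations, 96-well plates. GI50 marks 50% less growth. TGI: concentration producing complete growth inhibition.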

Some test systems named below: K-562 leukemia; OVCAR-5 ovarian; SNB-19 CNS; SN12C renal; SR leukemia; EKVX NSCLC; HCC-2998 colon; A498 renal; DMS 114 small cell lung; DMS 273 small cell lung; HOP-18 NSCLC; XF 498 CNS; KM20L2 colon; RXF-631 renal; M19-MEL melanoma; SNB-78 CNS.
Common to all, as to assay: NCI tumour cell line growth inhibition, 48 h

On to `CO/N=C(\C)COc1ccc2c(=O)c(-c3ccccc3)coc2c1`, for which the GI50 in the test with K-562 leukemia is more than 100 µM; with OVCAR-5 ovarian, 3.23 µM; in the test with SNB-19 CNS it was 17.7 µM; with SN12C renal, 30.1 µM. Besides, the TGI was more than 100 µM in the test with K-562 leukemia, 43.8 µM in the test on OVCAR-5 ovarian, more than 100 µM with SNB-19 CNS and 68.9 µM in the test on SN12C renal.

As to `CCOC(=O)C(O)(NC(=O)c1ccccc1F)C(F)(F)F` (stereo unspecified), the TGI in the test with SR leukemia, in the test on EKVX NSCLC, in the test on K-562 leukemia, in the test on OVCAR-5 ovarian, in the test on SNB-19 CNS and in the test on SN12C renal was more than 100 µM each time. Also, in the test on HCC-2998 colon, the TGI was more than 100 µM.

With `N#Cc1c(N)sc2c1-c1ccccc1OC2`, the TGI is 47.9 µM in the test with SR leukemia; 31 µM in the test on EKVX NSCLC; more than 100 µM with K-562 leukemia; more than 100 µM in the test with A498 renal; more than 100 µM in the test on OVCAR-5 ovarian; more than 100 µM in the test on SNB-19 CNS. For the same molecule, the TGI with SN12C renal was 68.6 µM; in the test on HCC-2998 colon, more than 100 µM.

Consider `COc1cc(C2C(C(=O)O)=C(COC(C)=O)Oc3cc4c(cc32)OCO4)cc(OC)c1OC` (stereo unspecified), for which the TGI with DMS 114 small cell lung, in the test on DMS 273 small cell lung, in the test with HOP-18 NSCLC, with XF 498 CNS, in the test with EKVX NSCLC and in the test on KM20L2 colon was more than 100 µM throughout. Moreover, the TGI with K-562 leukemia, in the test on OVCAR-5 ovarian, with RXF-631 renal, with SNB-19 CNS, with SN12C renal and in the test on M19-MEL melanoma was more than 100 µM in each case. Further, the TGI with SNB-78 CNS was more than 100 µM.

With `CCc1ccc2nc(-c3ccc(O)cc3)sc2c1`, the TGI with K-562 leukemia amounted to 54.5 µM; in the test on A498 renal, 34.2 µM; with OVCAR-5 ovarian, 28.6 µM; in the test with SNB-19 CNS, 35.5 µM; in the test with SN12C renal, 27.7 µM.
